Laboratory results published in ChEMBL document CHEMBL2034833, “Synthesis of chalcone-amidobenzothiazole conjugates as antimitotic and apoptotic inducing agents” (Bioorg Med Chem, 2012).
Calls of active or inactive are those of the source. The rule behind the calls is not given here.

Key:
[1] = test system: 786-0; assay: Growth inhibition of human 786-0 cells after 48 hrs by sulforhodamine B assay; assay type: functional; details: 786-0, 48 h
[2] = test system: CAKI-1; assay: Growth inhibition of human CAKI-1 cells after 48 hrs by sulforhodamine B assay; assay type: functional; details: CAKI-1, 48 h
[3] = test system: RXF 393; assay: Growth inhibition of human RXF393 cells after 48 hrs by sulforhodamine B assay; assay type: functional; details: RXF 393, 48 h
[4] = test system: SN12C; assay: Growth inhibition of human SN12C cells after 48 hrs by sulforhodamine B assay; assay type: functional
[5] = test system: TK-10; assay: Growth inhibition of human TK10 cells after 48 hrs by sulforhodamine B assay; assay type: functional; details: TK-10, 48 h
[6] = test system: A549; assay: Cell cycle arrest in human A549 cells assessed as cell accumulation at subG1 phase at 4 uM after 48 hrs by propidium iodide staining based flow cytometry (reference value: […]); assay type: functional
[7] = test system: A549; assay: Cell cycle arrest in human A549 cells assessed as cell accumulation at G0/G1 phase at 4 uM after 48 hrs by propidium iodide staining based flow cytometry (reference value: 70.15%); assay type: functional
[8] = test system: A549; assay: Cell cycle arrest in human A549 cells assessed as cell accumulation at G2/M phase at 2 uM after 48 hrs by propidium iodide staining based flow cytometry (reference value: 23.75%); assay type: functional
[9] = test system: A549; assay: Cell cycle arrest in human A549 cells assessed as cell accumulation at G2/M phase at 4 uM after 48 hrs by propidium iodide staining based flow cytometry (reference value: 23.75%); assay type: functional
[10] = Inhibition of tubulin polymerization at 3 uM after 1 hr by fluorescence assay
[11] = Inhibition of tubulin polymerization after 1 hr by fluorescence assay
[12] = target: Tubulin (Homo sapiens) (UniProt P68371+Q9H4B7+P0DPH7+P68366+Q13509+Q71U36+P04350+Q3ZCM7+P07437+P68363+Q9BQE3+Q6PEY2+Q13885+Q9BVA1+Q9BUF5); assay: Inhibition of tubulin polymerization in human A549 cells assessed as disrupted microtubule organization at 2 uM after 48 hrs by immunohistochemistry analysis; assay type: cell-based
[13] = test system: A549; assay: Induction of apoptosis in human A549 cells assessed as increase in caspase3 activity using AFC-conjugated Ac-DEVD as substrate at 2 uM after 48 hrs by fluorescence assay relative to control; assay type: functional
[14] = test system: A549; assay: Induction of apoptosis in human A549 cells assessed as necrotic cells at 2 uM after 48 hrs by annexin-V FITC/propidium iodide staining based FACS analysis; assay type: functional
[15] = test system: A549; assay: Growth inhibition of human A549 cells after 48 hrs by sulforhodamine B assay; assay type: functional; details: A549, 48 h
[16] = test system: A549; assay: Induction of apoptosis in human A549 cells assessed as late apoptotic cells at 2 uM after 48 hrs by annexin-V FITC/propidium iodide staining based FACS analysis; assay type: functional
[17] = test system: A549; assay: Induction of apoptosis in human A549 cells assessed as viable cells at 2 uM after 48 hrs by annexin-V FITC/propidium iodide staining based FACS analysis; assay type: functional; details: A549, 48 h, read-out: Activity
[18] = test system: A549; assay: Induction of apoptosis in human A549 cells assessed as early apoptotic cells at 2 uM after 48 hrs by annexin-V FITC/propidium iodide staining based FACS analysis; assay type: functional
[19] = test system: A-375; assay: Cytotoxicity against human A375 cells after 48 hrs by MTT assay; assay type: functional, cell-based; details: A-375, 48 h
[20] = test system: HT-29; assay: Cytotoxicity against human HT-29 cells after 48 hrs by MTT assay; assay type: functional, cell-based; details: HT-29, 48 h, read-out: IC50
[21] = test system: CCRF-CEM; assay: Growth inhibition of human CCRF-CEM cells after 48 hrs by sulforhodamine B assay; assay type: functional
[22] = test system: K562; assay: Growth inhibition of human K562 cells after 48 hrs by sulforhodamine B assay; assay type: functional; details: K562, 48 h
[23] = test system: MOLT-4; assay: Growth inhibition of human MOLT4 cells after 48 hrs by sulforhodamine B assay; assay type: functional; details: MOLT-4, 48 h
[24] = test system: SR; assay: Growth inhibition of human SR cells after 48 hrs by sulforhodamine B assay; assay type: functional
[25] = test system: EKVX; assay: Growth inhibition of human EKVX cells after 48 hrs by sulforhodamine B assay; assay type: functional
[26] = test system: HOP-92; assay: Growth inhibition of human HOP92 cells after 48 hrs by sulforhodamine B assay; assay type: functional; details: HOP-92, 48 h
[27] = test system: NCI-H322M; assay: Growth inhibition of human NCI-H322M cells after 48 hrs by sulforhodamine B assay; assay type: functional
[28] = test system: NCI-H522; assay: Growth inhibition of human NCI-H522 cells after 48 hrs by sulforhodamine B assay; assay type: functional; details: NCI-H522, 48 h
[29] = test system: HCC 2998; assay: Growth inhibition of human HCC2998 cells after 48 hrs by sulforhodamine B assay; assay type: functional; details: HCC 2998, 48 h
[30] = test system: HT-29; assay: Growth inhibition of human HT-29 cells after 48 hrs by sulforhodamine B assay; assay type: functional; details: HT-29, 48 h
[31] = test system: KM12; assay: Growth inhibition of human KM12 cells after 48 hrs by sulforhodamine B assay; assay type: functional; details: KM12, 48 h
[32] = test system: PC-3; assay: Growth inhibition of human PC3 cells after 48 hrs by sulforhodamine B assay; assay type: functional; details: PC-3, 48 h
[33] = test system: MDA-MB-468; assay: Growth inhibition of human MDA-MB-468 cells after 48 hrs by sulforhodamine B assay; assay type: functional; details: MDA-MB-468, 48 h
[34] = test system: SF-268; assay: Growth inhibition of human SF268 cells after 48 hrs by sulforhodamine B assay; assay type: functional; details: SF-268, 48 h
[35] = test system: SNB-19; assay: Growth inhibition of human SNB19 cells after 48 hrs by sulforhodamine B assay; assay type: functional; details: SNB-19, 48 h
[36] = test system: SNB-75; assay: Growth inhibition of human SNB75 cells after 48 hrs by sulforhodamine B assay; assay type: functional; details: SNB-75, 48 h
[37] = test system: LOX IMVI; assay: Growth inhibition of human LOXIMVI cells after 48 hrs by sulforhodamine B assay; assay type: functional
[38] = test system: MDA-MB-435; assay: Growth inhibition of human MDA-MB-435 cells after 48 hrs by sulforhodamine B assay; assay type: functional; details: MDA-MB-435, 48 h
[39] = test system: SK-MEL-2; assay: Growth inhibition of human SK-MEL-2 cells after 48 hrs by sulforhodamine B assay; assay type: functional; details: SK-MEL-2, 48 h
[40] = test system: SK-MEL-5; assay: Growth inhibition of human SK-MEL-5 cells after 48 hrs by sulforhodamine B assay; assay type: functional; details: SK-MEL-5, 48 h
[41] = test system: UACC-257; assay: Growth inhibition of human UACC257 cells after 48 hrs by sulforhodamine B assay; assay type: functional; details: UACC-257, 48 h
[42] = test system: OVCAR-4; assay: Growth inhibition of human OVCAR4 cells after 48 hrs by sulforhodamine B assay; assay type: functional; details: OVCAR-4, 48 h
[43] = test system: OVCAR-5; assay: Growth inhibition of human OVCAR5 cells after 48 hrs by sulforhodamine B assay; assay type: functional; details: OVCAR-5, 48 h
[44] = test system: NCI/ADR-RES; assay: Growth inhibition of human NCI/ADR-RES cells after 48 hrs by sulforhodamine B assay; assay type: functional
[45] = test system: A549; assay: cells; details: Homo sapiens, A549, 48 h
Description: Cytotoxicity against human A549 cells after 48 hrs by MTT assay

COc1ccc(/C=C/C(=O)c2cc(OC)c(OC)c(OC)c2)cc1OCC(=O)Nc1nc2ccc(OC(F)(F)F)cc2s1
GI50 [1]: 2.26 µM | GI50 [2]: 2.2 µM | GI50 [3]: 1.58 µM | GI50 [4]: 1.74 µM | GI50 [5]: 2.08 µM | Activity [6]: 3.21% | Activity [7]: 8.68% | Activity [8]: 80.73% | Activity [9]: 83.21% | inhibition [10]: 63.1% | IC50 [11]: 5.2 µM | inhibition [12]: Active | fold change (FC) [13]: 4 | Activity [14]: 6.2% | GI50 [15]: 1.99 µM | Activity [16]: 74.9% | viability at 2 µM [17]: 30.4% | Activity [18]: 1.3% | IC50 [19]: 2.4 µM | IC50 [20]: 1.1 µM | GI50 [21]: 2.5 µM | GI50 [22]: 0.43 µM | GI50 [23]: 2.89 µM | GI50 [24]: 0.39 µM | GI50 [25]: 5.11 µM | GI50 [26]: 2.14 µM | GI50 [27]: 2.77 µM | GI50 [28]: 0.67 µM | GI50 [29]: 6.18 µM | GI50 [30]: 3.66 µM | GI50 [31]: 1.51 µM | GI50 [32]: 3.14 µM | GI50 [33]: 3.52 µM | GI50 [34]: 1.2 µM | GI50 [35]: 1.58 µM | GI50 [36]: 0.34 µM | GI50 [37]: 0.47 µM | GI50 [38]: 0.3 µM | GI50 [39]: 4.97 µM | GI50 [40]: 2.03 µM | GI50 [41]: 8.08 µM | GI50 [42]: 2.07 µM | GI50 [43]: 4.76 µM | GI50 [44]: 0.49 µM | IC50 [45]: 0.9 µM
